Measured values as given in PubChem BioAssay AID1417 (Emory University Molecular Libraries Screening Center, 2008).

Target: Induced myeloid leukemia cell differentiation protein Mcl-1 (Homo sapiens) (UniProt Q07820)
Experiment: Mcl-1/Noxa binding inhibitor potency, dose response, biochemical, TR-FRET (AID 1417)
Settings: Mcl-1/Noxa peptide interaction, cell-free TR-FRET (terbium/rhodamine), 2 h; measured here: absolute IC50

Chain of Induced myeloid leukemia cell differentiation protein Mcl-1 (Homo sapiens) (Q07820 whole entry, looked up): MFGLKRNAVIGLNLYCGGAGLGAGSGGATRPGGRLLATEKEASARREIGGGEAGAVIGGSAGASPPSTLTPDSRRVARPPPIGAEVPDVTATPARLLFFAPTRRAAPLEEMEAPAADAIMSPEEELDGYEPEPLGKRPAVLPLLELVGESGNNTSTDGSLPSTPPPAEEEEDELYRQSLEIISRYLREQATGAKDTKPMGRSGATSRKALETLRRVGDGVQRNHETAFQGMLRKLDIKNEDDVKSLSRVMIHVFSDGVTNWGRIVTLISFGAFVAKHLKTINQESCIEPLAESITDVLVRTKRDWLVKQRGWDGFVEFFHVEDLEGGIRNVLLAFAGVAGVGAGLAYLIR

SMILES	IC50 [nM]
Cc1sccc1/C=N/NC(=O)c1cccc2ccccc12	> 54000
O=C(O)CSc1cc(C(=O)c2cc(F)ccc2O)cn2c(=O)c3c(-c4ccccc4)csc3nc12	2120
Cc1[nH]n(-c2ccc(Br)cc2)c(=O)c1C=Nc1ccc(S(=O)(=O)Nc2nccs2)cc1	8080
CCOC(=O)c1c(-c2ccc(C)cc2)csc1NC(=O)/C(C#N)=C/c1ccc(O)c(OC)c1	< 400
COc1ccc(/C=N/NC(=O)c2ccc(O)cc2O)cc1CSc1ccccn1	2480
Cc1cccc(NC(=O)CSc2nnc(-c3ccco3)c(-c3ccco3)n2)c1	6580
CC1=NN(c2ccccc2)C(=O)/C1=C/c1c(O)n(-c2ccc(F)c(Cl)c2)[nH]c1=O	4790
O=[N+]([O-])c1ccc(N/N=C/c2ccc(O)c(O)c2O)c(S(=O)(=O)N2CCOCC2)c1	< 400
Cc1cc(=O)n2[nH]c(-c3ccsc3-n3c(C)ccc3C)cc2n1	2890
O=c1nc2s/c(=C\c3ccc(-c4ccccc4[N+](=O)[O-])o3)c(=O)n2nc1-c1ccccc1	< 400
COC(=O)c1ccc2nc(Nc3nc4c(F)cc(F)cc4s3)sc2c1	< 400
O=C1NN(c2ccc(F)c(Cl)c2)C(=O)/C1=C\c1cccc(OC(=O)c2cccs2)c1	6860
COc1ccccc1N1C(=O)C2ON(c3ccccc3)C(c3ccc(N(C)C)cc3)C2C1=O (configuration not stated)	> 54000
O=C1NC(=S)NC(=O)C1=Cc1cccn1-c1ccc(O)cc1	3360
CCOC(=O)N1CCN(c2c(NCCCN(CC)Cc3ccccc3)c(=O)c2=O)CC1	4060
COc1ccc(CN2C(=O)/C(=C/c3ccc(-c4ccc(Cl)c(C(=O)O)c4)o3)SC2=S)cc1	1560
O=C1c2ccc([N+](=O)[O-])cc2NC(c2ccco2)N1/N=C/c1ccco1 (configuration not stated)	> 54000
CC1=Nc2ccc(C)cc2/C1=C/c1c(N)n2c(S(=O)(=O)C(C)C)nsc2nc1=O	> 54000
O=c1c(Cl)c(N/N=C/c2ccc(Cl)cc2)cnn1-c1ccccc1	4420
CCS(=O)(=O)N1CCN(C(C)CCc2ccccc2)CC1 (configuration not stated)	> 54000
O=C(Nc1ccc(Cl)cc1)N1CCc2[nH]c3ccccc3c2C1	> 54000
CCN1c2ccccc2N(C)C1(C)c1ccccc1 (configuration not stated)	5110
Cc1ccc2c(c1C)NC(C(=O)O)C1CC=CC21 (configuration not stated)	1070
CCC(C)N1C(=O)/C(=C/c2ccc3c(c2)CCN3CCCCl)C(=O)NC1=S (configuration not stated)	1920
O=c1ccc2[n+]([O-])c3ccc(O)cc3oc-2c1	> 54000
COc1cc(SSc2cc(OC)cc([N+](=O)[O-])c2N)c(N)c([N+](=O)[O-])c1	< 400

SMILES	IC50 [nM]
Cc1cc(C(=O)N/N=C/c2cc(N=Nc3ccccc3)ccc2O)n[nH]1	10900
COCCN1Cc2cccc(C(=O)Nc3cccc(C)c3C)c2C1=O	> 54000
CCCOc1ccc(C(=O)Nc2ccc(N(C)C)cc2)cc1	> 54000
CCc1nnc(NC(=O)c2cc(-c3ccco3)nc3ccccc23)s1	2540
CCOC(=O)c1sc2nc3c(SCCC(=O)O)cc(C(=O)c4cc(OC)ccc4O)cn3c(=O)c2c1C	955
Cc1oc(-c2ccc(Cl)cc2)cc1-c1nn2c(-c3ccoc3C)nnc2s1	> 54000
COc1ccc2nc(N3C(=O)/C(=C/c4ccc(Cl)cc4)NC3=S)sc2c1	1430
O=C(Nc1ccc2nc(-c3ccc4nc[nH]c4c3)[nH]c2c1)c1cccs1	2700
COc1ccc(C(=O)C[n+]2ccc(-c3nnc4n3CCCCC4)cc2)cc1	23100
COc1cc(/C=N\Nc2nc(-c3ccc(C)cc3)c(NC(C)=O)s2)ccc1O	> 54000
O=C1NC(=S)N(C2CC2)C(=O)/C1=C/c1ccc2c(c1)CCN2CCCCl	728
CC1Oc2cc3c(-c4c(O)cc(O)c5c(O)c6c(cc45)OC(C)C(C)C6=O)c(O)cc(O)c3c(O)c2C(=O)C1C (configuration not stated)	< 400
O=C(O)CCCN1C(=O)/C(=C/c2cn(-c3ccccc3)nc2-c2cccs2)SC1=S	1540
Cc1cc2c(C(C)C)c(O)c(O)c(C=O)c2c(O)c1-c1c(C)cc2c(C(C)C)c(O)c(O)c(C=O)c2c1O	< 400
CCC(C)NCCCOc1c(C)cc(C)cc1Br (configuration not stated)	> 54000
Cc1ccc(S(=O)(=O)/N=C2/C=C(C3C(=O)CC(C)(C)CC3=O)C(=O)c3ccccc32)cc1	2870
COc1ccc(C(=O)Nc2cccc(/C=C(\CCC(=O)O)c3nc4ccccc4s3)c2)cc1	3940
CCOc1ccc2nc(N3C(=O)/C(=C/c4ccc(Cl)cc4)NC3=S)sc2c1	1550
COc1ccc(-c2ccc(/C=N/NC(=O)c3cccnc3)o2)c([N+](=O)[O-])c1	4320
Cc1ccc(N=Nc2ccc(O)c(/C=N\NC(=O)c3ccc(N)cc3)c2)cc1C	2240
Cc1ccc(CNC(=O)c2ccc(-n3cccc3)cc2)cc1	2260
Cc1ccc(OCC(=O)Nc2ccc(N3CCCC3)cc2)cc1C	7070
CCN(CC)C(=O)CC(c1cc(OC)c(OC)c(OC)c1)c1c(OC)cc(OC)c2c(-c3ccccc3)cc(=O)oc12 (configuration not stated)	4050
CCN(c1ccc(NC(=O)COC(=O)c2ccc(C)c(S(=O)(=O)N3CCOCC3)c2)cc1)C(C)C	> 54000
O=C1N=c2ccccc2=C1c1sc(Nc2ccc(O)cc2)nc1O	1200
CCN(CC)Cc1cc(O)c(CN(CC)CC)cc1O	< 400
